Results: US20080227790A1, “Pyridazinone Derivatives and their Use as Pde4 Inhibitors” (Altana Pharma AG, priority 2004, published 2008)

Assays:
[1] = molecular target: T1, PDE4B2 (Homo sapiens, UniProt Q07343); assay: Inhibition of PDE4B2 activity, modified [3H]cAMP SPA enzyme assay; type: biochemical; conditions: recombinant PDE4B2 (GB no. M97515) expressed in SF21 cells; 0.5 μM cAMP; 15 min at 37° C.; read-out: PDE4 Inhibition [measured as −logIC50 (mol/l)] (converted)
T1 construct: made in house; host or cells: SF21 insect cells (baculovirus prepared in SF9 cells; pCR-Bac vector)
Procedure: PDE4B2 (GB no. M97515) was a gift of Prof. M. Conti (Stanford University, USA). It was amplified from the original plasmid (pCMV5) via PCR with primers Rb9 (5′-[…]-3′) and Rb10 (5′-[…]-3′) and cloned into the pCR-Bac vector (Invitrogen, Groningen, NL).
The recombinant baculovirus was prepared by means of homologous recombination in SF9 insect cells. The expression plasmids were cotransfected with Bac-N-Blue (Invitrogen, Groningen, NL) or Baculo-Gold DNA (Pharmingen, Hamburg) using a standard protocol (Pharmingen, Hamburg). Wt virus-free recombinant virus supernatants were selected using plaque assay methods. After that, high-titre virus supernatants were prepared by amplifying 3 times. PDE4B2 was expressed in SF21 cells by infecting 2×10^6 cells/ml with an MOI (multiplicity of infection) between 1 and 10 in serum-free SF900 medium (Life Technologies, Paisley, UK). The cells were cultured at 28° C. for 48-72 hours, after which they were pelleted for 5-10 min at 1000 g and 4° C.
The SF21 insect cells were resuspended, at a concentration of approx. 10^7 cells/ml, in ice-cold (4° C.) homogenization buffer (20 mM Tris, pH 8.2, containing the following additions: 140 mM NaCl, 3.8 mM KCl, 1 mM EGTA, 1 mM MgCl2, 10 mM β-mercaptoethanol, 2 mM benzamidine, 0.4 mM Pefablock, 10 μM leupeptin, 10 μM pepstatin A, 5 μM trypsin inhibitor) and disrupted by ultrasonication. The homogenate was then centrifuged for 10 min at 1000×g and the supernatant was stored at −80° C. until sub-sequent use (see below). The protein content was determined by the Bradford method (BioRad, Munich) using BSA as the standard.
PDE4B2 activity was inhibited by the compounds according to the invention in a modified SPA (scintillation proximity assay) test, supplied by Amersham Biosciences (see procedural instructions “phosphodiesterase [3H]cAMP SPA enzyme assay, code TRKQ 7090”), carried out in 96-well microtitre plates (MTP's). The test volume is 100 μl and contains 20 mM Tris buffer (pH 7.4), 0.1 mg of BSA (bovine serum albumin)/ml, 5 mM Mg^2+, 0.5 μM cAMP (including about 50,000 cpm of [3H]cAMP), 1 μl of the respective substance dilution in DMSO and sufficient recombinant PDE (1000×g supernatant, see above) to ensure that 10-20% of the cAMP is converted under the said experimental conditions. […] After a preincubation of 5 min at 37° C., the reaction is started by adding the substrate (cAMP) and the assays are incubated for a further 15 min; after that, they are stopped by adding SPA beads (50 μl). In accordance with the manufacturer's instructions, the SPA beads had previously been resuspended in water, but were then diluted 1:3 (v/v) in water; the diluted solution also contains 3 mM IBMX to ensure a complete PDE activity stop. After the beads have been sedimented (>30 min), the MTP's are analyzed in commercially available luminescence detection devices. The corresponding IC50 values of the compounds for the inhibition of PDE4B2 activity are determined from the concentration-effect curves by means of non-linear regression.

T1 sequence (Q07343 1-564 isoform Q07343-2): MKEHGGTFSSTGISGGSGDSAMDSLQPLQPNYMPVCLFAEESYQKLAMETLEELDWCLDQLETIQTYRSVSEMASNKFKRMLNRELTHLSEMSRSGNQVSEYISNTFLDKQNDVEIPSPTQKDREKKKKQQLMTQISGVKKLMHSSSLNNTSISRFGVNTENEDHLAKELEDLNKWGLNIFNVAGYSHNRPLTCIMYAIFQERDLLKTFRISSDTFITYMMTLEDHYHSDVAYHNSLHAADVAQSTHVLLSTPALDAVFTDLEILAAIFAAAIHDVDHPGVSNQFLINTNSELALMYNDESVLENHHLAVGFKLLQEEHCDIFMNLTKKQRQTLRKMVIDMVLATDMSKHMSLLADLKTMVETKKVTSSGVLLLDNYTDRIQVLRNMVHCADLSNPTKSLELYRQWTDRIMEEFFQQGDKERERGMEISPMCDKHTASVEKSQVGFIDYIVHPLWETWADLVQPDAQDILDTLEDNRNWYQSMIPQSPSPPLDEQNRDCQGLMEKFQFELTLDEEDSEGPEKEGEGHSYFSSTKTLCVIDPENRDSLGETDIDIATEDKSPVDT

IC50 [1] [nM]	melting point	SMILES
32.4	196 to 198 °C	COc1ccc(C2=NN(c3ccc(C(=O)O)cc3)C(=O)C(C)(C)C2)cc1OC [Compound 1, 4-(3-{3,4-dimethoxyphenyl}-5,5-dimethyl-6-oxo-5,6-dihydro-4H-pyridazin-1-yl)-benzoic acid]
3.98	137 to 138 °C	COc1ccc(C2=NN(c3ccc(OCc4ccccc4)cc3)C(=O)C(C)(C)C2)cc1OC [Compound 2, 2-(4-Benzyloxy-phenyl)-6-(3,4-dimethoxy-phenyl)-4,4-dimethyl-4,5-dihydro-2H-pyridazin-3-one]
11.2	249 °C (dec.)	COc1ccc(C2=NN(c3ccc(C(=O)N4CCN(CCN5CCOCC5)CC4)cc3)C(=O)C(C)(C)C2)cc1OC.Cl.Cl [Compound 3, 6-(3,4-Dimethoxy-phenyl)-4,4-dimethyl-2-(4-{1-[4-(2-morpholin-4-yl-ethyl)-piperazin-1-yl]-methanoyl}-phenyl)-4,5-dihydro-2H-pyridazin-3-one dihydrochloride]
7.76	223 to 225 °C	COc1ccc(C2=NN(c3ccc(C(=O)N4CCN(c5ccncc5)CC4)cc3)C(=O)C(C)(C)C2)cc1OC.Cl.Cl [Compound 4, 6-(3,4-Dimethoxy-phenyl)-4,4-dimethyl-2-{4-[1-(4-pyridin-4-yl-piperazin-1-yl)-methanoyl]-phenyl}-4,5-dihydro-2H-pyridazin-3-one dihydrochloride]
6.03	176 to 178 °C	COc1ccc(C2=NN(c3ccc(O)cc3)C(=O)C(C)(C)C2)cc1OC [Compound 5, 6-(3,4-Dimethoxy-phenyl)-2-(4-hydroxy-phenyl)-4,4-dimethyl-4,5-dihydro-2H-pyridazin-3-one]
1.74	165 to 166 °C	COc1ccc(C2=NN(c3ccc(C(=O)N4CCOCC4)cc3)C(=O)C(C)(C)C2)cc1OC [Compound 6, 6-(3,4-Dimethoxy-phenyl)-4,4-dimethyl-2-[4-(1-morpholin-4-yl-methanoyl)-phenyl]-4,5-dihydro-2H-pyridazin-3-one]
10.5	184 to 187 °C	COc1ccc(C2=NN(c3ccc(OCC(N)=O)cc3)C(=O)C(C)(C)C2)cc1OC [Compound 7, 2-{4-[3-(3,4-Dimethoxy-phenyl)-5,5-dimethyl-6-oxo-5,6-dihydro-4H-pyridazin-1-yl]-phenoxy}-acetamide]
7.59	144 to 146 °C	COc1ccc(C2=NN(c3ccc(C(=O)N4CCN(CC(=O)N5CCCC5)CC4)cc3)C(=O)C(C)(C)C2)cc1OC.Cl [Compound 8, 6-(3,4-Dimethoxy-phenyl)-4,4-dimethyl-2-(4-{1-[4-(2-oxo-2-pyrrolidin-1-yl-ethyl)-piperazin-1-yl]-methanoyl}-phenyl)-4,5-dihydro-2H-pyridazin-3-one hydrochloride]
–	198 to 202 °C	COc1ccc(C2=NN(c3ccc(OCC(=O)N4CCN(C)CC4)cc3)C(=O)C(C)(C)C2)cc1OC.Cl [Compound 9, 6-(3,4-Dimethoxy-phenyl)-4,4-dimethyl-2-{4-[2-(4-methyl-piperazin-1-yl)-2-oxo-ethoxy]-phenyl}-4,5-dihydro-2H-pyridazin-3-one hydrochloride]
15.5	74 to 79 °C	COc1ccc(C2=NN(c3ccc(OCC(=O)N4CCOCC4)cc3)C(=O)C(C)(C)C2)cc1OC [Compound 10, 6-(3,4-Dimethoxy-phenyl)-4,4-dimethyl-2-[4-(2-morpholin-4-yl-2-oxo-ethoxy)-phenyl]-4,5-dihydro-2Hpyridazin-3-one]
–	165 to 167 °C	COc1ccc(C2=NN(c3cccc(C(=O)O)c3)C(=O)C(C)(C)C2)cc1OC [Compound 11, 3-[3-(3,4-Dimethoxy-phenyl)-5,5-dimethyl-6-oxo-5,6-dihydro-4H-pyridazin-1-yl]-benzoic acid]
–	108 to 109 °C	COc1ccc(C2=NN(c3cccc(C(=O)N4CCOCC4)c3)C(=O)C(C)(C)C2)cc1OC [Compound 13, 6-(3,4-Dimethoxy-phenyl)-4,4-dimethyl-2-[3-(1-morpholin-4-yl-methanoyl)-phenyl]-4,5-dihydro-2H-pyridazin-3-one]
–	165 to 167 °C	COc1ccc(C2=NN(c3ccc(CC(=O)N4CCOCC4)cc3)C(=O)C(C)(C)C2)cc1OC [Compound 14, 6-(3,4-Dimethoxy-phenyl)-4,4-dimethyl-2-[4-(2-morpholin-4-yl-2-oxo-ethyl)-phenyl]-4,5-dihydro-2H-pyridazin-3-one]
–	123 to 124 °C	COc1ccc(C2=NN(c3ccc(Br)cc3)C(=O)C(C)(C)C2)cc1OC [Compound 15, 2-(4-Bromo-phenyl)-6-(3,4-dimethoxy-phenyl)-4,4-dimethyl-4,5-dihydro-2H-pyridazin-3-one]
–	178 to 179 °C	COc1ccc(C2=NN(c3ccc(N4CCOCC4)cc3)C(=O)C(C)(C)C2)cc1OC [Compound 16, 6-(3,4-Dimethoxy-phenyl)-4,4-dimethyl-2-(4-morpholin-4-yl-phenyl)-4,5-dihydro-2H-pyridazin-3-one]
